Assay results reported in patent US9266879B2, “Naphthridine derivatives as PI3K inhibitors for the treatment of cancer and immune-inflammatory disease” (Karus Therapeutic Limited, priority 2010, dated 2016).
Read-outs that look alike come from different tables or passages of the source.

Experiments:
PI3K-p110β = PI3K-p110β (Homo sapiens, UniProt P42338); experiment: Biochemical PI3K-p110β inhibition
MCF7 Breast Tumour Cell = experiment: MCF7 breast tumour cell growth inhibition; type: cell-based; conditions: Homo sapiens
PI3K-p110α = PI3K-p110α (Homo sapiens, UniProt P42336); experiment: PI3K-p110α inhibition; type: biochemical
PI3K-p110δ = PI3K-p110δ (Homo sapiens, UniProt O00329); experiment: PI3K-p110δ inhibition; type: biochemical
PI3K-p110γ = PI3K-p110γ (Homo sapiens, UniProt P48736); experiment: PI3K-p110γ inhibition; type: biochemical
[1] = read-out: Biochemical IC50, PI3K-p110β

Sequence of PI3K-p110β (P42338 whole entry): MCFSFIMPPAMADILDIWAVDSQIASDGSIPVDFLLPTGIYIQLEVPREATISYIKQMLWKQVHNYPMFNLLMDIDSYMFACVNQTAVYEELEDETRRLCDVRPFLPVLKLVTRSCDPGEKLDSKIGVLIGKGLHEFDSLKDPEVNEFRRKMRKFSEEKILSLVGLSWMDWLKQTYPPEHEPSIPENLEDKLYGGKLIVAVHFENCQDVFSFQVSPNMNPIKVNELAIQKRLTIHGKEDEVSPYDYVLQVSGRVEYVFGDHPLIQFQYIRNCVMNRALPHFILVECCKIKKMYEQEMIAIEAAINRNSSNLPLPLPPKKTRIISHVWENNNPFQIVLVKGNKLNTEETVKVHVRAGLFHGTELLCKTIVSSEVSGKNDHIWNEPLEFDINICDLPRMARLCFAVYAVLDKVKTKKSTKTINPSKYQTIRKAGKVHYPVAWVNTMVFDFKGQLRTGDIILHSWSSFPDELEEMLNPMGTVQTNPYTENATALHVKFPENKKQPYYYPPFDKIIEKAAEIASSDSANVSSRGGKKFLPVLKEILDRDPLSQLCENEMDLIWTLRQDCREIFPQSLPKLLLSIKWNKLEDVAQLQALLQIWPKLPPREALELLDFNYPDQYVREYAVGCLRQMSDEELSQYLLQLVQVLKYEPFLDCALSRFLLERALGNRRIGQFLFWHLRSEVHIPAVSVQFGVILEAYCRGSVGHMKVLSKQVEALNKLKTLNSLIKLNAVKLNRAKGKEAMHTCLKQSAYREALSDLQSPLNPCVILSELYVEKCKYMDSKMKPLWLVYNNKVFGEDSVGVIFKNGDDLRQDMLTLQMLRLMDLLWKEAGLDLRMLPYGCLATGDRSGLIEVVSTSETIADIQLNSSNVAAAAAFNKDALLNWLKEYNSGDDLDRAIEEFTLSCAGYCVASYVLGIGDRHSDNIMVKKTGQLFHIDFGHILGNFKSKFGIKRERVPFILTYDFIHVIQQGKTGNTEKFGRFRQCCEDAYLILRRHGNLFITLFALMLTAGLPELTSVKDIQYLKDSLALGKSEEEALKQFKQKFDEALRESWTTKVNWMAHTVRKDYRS
Sequence of PI3K-p110β (P27986 whole entry partner): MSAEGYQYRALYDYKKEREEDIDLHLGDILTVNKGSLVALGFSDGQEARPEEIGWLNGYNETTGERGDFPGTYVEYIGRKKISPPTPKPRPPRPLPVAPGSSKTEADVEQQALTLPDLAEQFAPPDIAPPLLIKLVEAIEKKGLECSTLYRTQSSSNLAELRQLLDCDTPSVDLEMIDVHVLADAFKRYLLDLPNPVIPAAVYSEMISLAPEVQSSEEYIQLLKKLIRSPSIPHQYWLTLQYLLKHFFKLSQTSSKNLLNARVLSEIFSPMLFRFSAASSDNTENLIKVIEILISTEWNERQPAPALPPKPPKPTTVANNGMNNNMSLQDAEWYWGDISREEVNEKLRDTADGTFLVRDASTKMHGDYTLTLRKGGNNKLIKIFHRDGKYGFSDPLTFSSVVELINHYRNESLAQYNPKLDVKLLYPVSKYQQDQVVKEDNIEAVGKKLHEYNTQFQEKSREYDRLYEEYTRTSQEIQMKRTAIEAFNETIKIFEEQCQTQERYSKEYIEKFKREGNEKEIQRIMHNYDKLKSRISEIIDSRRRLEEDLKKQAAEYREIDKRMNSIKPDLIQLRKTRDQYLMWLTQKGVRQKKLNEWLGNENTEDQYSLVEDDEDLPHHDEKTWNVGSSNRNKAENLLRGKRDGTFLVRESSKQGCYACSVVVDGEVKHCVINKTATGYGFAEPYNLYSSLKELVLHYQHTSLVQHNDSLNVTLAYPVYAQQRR
Sequence of PI3K-p110δ (O00329 whole entry): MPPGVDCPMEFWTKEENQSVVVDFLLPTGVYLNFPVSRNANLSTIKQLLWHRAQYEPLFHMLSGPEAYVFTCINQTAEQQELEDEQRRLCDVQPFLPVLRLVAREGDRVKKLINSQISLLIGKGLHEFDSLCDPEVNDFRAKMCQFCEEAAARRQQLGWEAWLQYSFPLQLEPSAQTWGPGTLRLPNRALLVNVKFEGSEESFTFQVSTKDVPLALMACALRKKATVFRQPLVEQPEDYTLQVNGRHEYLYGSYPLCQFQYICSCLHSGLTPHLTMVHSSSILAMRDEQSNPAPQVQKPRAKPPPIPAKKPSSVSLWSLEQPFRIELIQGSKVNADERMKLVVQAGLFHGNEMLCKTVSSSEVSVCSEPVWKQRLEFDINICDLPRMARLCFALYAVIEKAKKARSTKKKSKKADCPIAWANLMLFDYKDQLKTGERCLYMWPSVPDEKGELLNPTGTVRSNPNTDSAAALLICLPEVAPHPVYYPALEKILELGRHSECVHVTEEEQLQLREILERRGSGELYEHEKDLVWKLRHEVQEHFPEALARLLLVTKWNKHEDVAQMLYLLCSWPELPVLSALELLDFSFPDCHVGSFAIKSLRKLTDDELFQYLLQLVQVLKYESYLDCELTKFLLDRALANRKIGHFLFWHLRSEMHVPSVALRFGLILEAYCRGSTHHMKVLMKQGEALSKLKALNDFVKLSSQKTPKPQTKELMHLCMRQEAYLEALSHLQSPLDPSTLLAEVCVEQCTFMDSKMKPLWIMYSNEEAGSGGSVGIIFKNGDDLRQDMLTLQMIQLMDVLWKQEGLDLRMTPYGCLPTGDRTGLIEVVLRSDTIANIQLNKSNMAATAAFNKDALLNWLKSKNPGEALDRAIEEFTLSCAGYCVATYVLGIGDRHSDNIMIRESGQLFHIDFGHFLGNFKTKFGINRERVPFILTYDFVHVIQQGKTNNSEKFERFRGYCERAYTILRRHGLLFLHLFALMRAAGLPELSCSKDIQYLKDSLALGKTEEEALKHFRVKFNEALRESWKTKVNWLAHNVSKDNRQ
Sequence of PI3K-p110δ (P27986 whole entry partner): as the sequence (P27986 whole entry partner) above
Sequence of PI3K-p110α (P42336 whole entry): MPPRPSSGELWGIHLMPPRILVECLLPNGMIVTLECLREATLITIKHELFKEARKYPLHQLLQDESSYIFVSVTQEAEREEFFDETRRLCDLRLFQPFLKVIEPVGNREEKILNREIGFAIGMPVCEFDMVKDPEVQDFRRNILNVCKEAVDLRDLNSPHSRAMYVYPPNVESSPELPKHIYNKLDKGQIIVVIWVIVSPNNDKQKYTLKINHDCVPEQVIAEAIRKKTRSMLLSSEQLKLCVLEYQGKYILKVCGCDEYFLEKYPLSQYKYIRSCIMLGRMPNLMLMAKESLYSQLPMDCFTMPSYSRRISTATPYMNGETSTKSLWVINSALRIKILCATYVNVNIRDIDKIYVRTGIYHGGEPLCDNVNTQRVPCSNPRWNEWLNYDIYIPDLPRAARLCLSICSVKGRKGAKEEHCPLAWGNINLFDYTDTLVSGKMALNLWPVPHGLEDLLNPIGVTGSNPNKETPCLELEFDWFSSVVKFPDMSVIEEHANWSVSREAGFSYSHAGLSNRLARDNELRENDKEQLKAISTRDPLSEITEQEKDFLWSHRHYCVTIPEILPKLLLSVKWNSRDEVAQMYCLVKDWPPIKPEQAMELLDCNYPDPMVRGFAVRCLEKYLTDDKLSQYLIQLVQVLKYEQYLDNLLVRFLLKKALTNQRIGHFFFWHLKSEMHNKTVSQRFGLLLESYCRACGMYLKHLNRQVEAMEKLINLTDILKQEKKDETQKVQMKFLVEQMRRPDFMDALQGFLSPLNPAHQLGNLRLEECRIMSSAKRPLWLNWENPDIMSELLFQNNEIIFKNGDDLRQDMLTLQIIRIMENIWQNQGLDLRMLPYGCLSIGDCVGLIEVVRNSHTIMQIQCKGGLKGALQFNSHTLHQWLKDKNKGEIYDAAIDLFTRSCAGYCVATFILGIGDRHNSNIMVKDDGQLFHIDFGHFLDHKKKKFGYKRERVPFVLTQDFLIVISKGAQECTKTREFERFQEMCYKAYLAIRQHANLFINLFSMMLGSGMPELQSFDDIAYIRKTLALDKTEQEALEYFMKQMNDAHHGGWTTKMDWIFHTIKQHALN
Sequence of PI3K-p110α (P27986 whole entry partner): as the sequence (P27986 whole entry partner) above
Sequence of PI3K-p110γ (P48736 whole entry): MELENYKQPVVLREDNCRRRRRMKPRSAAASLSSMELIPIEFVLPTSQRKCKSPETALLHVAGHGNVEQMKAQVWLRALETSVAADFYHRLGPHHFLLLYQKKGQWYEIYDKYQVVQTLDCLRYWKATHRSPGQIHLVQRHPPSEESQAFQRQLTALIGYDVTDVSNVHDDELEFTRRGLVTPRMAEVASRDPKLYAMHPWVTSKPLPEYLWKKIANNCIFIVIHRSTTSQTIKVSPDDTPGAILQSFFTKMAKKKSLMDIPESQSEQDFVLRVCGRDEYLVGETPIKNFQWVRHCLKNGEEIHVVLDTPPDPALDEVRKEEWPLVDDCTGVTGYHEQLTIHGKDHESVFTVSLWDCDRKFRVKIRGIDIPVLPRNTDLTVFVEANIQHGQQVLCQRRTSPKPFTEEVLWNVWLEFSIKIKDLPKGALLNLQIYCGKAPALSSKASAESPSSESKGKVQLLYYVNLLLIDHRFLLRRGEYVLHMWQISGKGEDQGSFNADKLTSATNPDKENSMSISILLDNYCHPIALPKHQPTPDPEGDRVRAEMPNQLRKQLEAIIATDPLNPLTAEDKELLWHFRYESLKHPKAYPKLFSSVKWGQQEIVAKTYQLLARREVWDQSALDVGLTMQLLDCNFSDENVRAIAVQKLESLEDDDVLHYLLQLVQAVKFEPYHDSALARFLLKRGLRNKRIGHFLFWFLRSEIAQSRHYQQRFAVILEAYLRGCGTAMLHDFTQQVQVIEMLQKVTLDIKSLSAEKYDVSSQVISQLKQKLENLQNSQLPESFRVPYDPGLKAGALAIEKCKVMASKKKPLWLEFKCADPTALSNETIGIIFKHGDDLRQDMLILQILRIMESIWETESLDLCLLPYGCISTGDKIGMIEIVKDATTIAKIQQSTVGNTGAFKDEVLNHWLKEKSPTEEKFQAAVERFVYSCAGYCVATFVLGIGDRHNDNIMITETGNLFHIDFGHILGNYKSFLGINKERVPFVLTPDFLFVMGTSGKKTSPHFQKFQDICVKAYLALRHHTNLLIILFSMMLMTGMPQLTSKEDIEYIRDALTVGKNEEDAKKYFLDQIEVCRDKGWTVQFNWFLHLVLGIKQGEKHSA

Structure (SMILES) | IC50 (PI3K-p110β; [1]) [µM] | IC50 (MCF7 Breast Tumour Cell) [µM] | IC50 (PI3K-p110β; isoform panel, second part of table, read-out: IC50 PI3K-p110β) [µM] | IC50 (PI3K-p110α) [µM] | IC50 (PI3K-p110δ) [µM] | IC50 (PI3K-p110γ) [µM]
Nc1ccc(-c2cc3ncccc3c(N3CCOCC3)n2)c(Cl)c1 [F, 3-Chloro-4-(5-morpholin-4-yl-[1,6]naphthyridin-7-yl)-phenylamine] | 3.7 | 10.9 | – | – | – | –
Nc1ccc(-c2cc3ncccc3c(N3CCOCC3)n2)cc1Cl [E, 2-Chloro-4-(5-morpholin-4-yl-[1,6]naphthyridin-7-yl)-phenylamine] | 0.69 | 6.06 | – | – | – | –
c1cc(-c2cc3ncccc3c(N3CCOCC3)n2)c2cc[nH]c2c1 [G, 7-(1H-Indol-4-yl)-5-morpholin-4-yl-1,6-naphthyridine] | – | – | 3.4 | > 10 | 0.26 | > 10
